# Source: patent publication US20190203409A1, “ANTIBACTERIAL REGENERATED CELLULOSIC FIBERS AND PROCESS OF PREPARATION THEREOF” (GRASIM INDUSTRIES LIMITED, priority 2016, published 2019)
# Tested on: S. Aureus
# Experiment: AATCC 147-2013 antibacterial test
# Assay type: cell-based
# Conditions: 0.5% concentration to weight of cellulose
# Procedure: An antibacterial agent is used in Standard VSF or Modal or Lyocell manufacturing process to improve antibacterial performance of fiber. A small amount of chemical DDAC (i.e. 0.05-1% on weight of cellulose fiber) is infused by the way of: pouring or spraying or soaking or coating or padding or dipping and the like on the fiber during fiber manufacturing process and then fibers were dried and finally packed into the bales. The resultant fiber was then evaluated for antibacterial performance in external biological laboratory as per standard test methods.
smiles,measurement,value
Oc1cc(Cl)ccc1Oc1ccc(Cl)cc1Cl [Triclosan],antibacterial activity (in words),did not demonstrate any antibacterial activity
